In patent publication US20160024083A1, “COMPOUNDS AND METHODS FOR TREATING CANCERS” (HEALTH RESEARCH, INC., priority 2013, published 2016):
pIC50: −log10 of the molar value.

Assays:
[1] = Aqueous solubility (pH 7.4); type: physicochemical
[2] = Metabolic stability in the presence of mouse liver microsomes; type: in vitro ADME; settings: for metabolic stability, % left: after 30 minute incubation with mouse liver microsome
[3] = tested on: presumable target protein; assay: DARTS (Drug Affinity Responsive Target Stability) assay in CWR22r lysates; type: binding; settings: protein lysates from CWR22r cells
Description: FIG. 24. DARTS (Drug Affinity Responsive Target Stability) assay was performed using c52 and PLA1118. According to this assay these compounds are capable of protecting presumable target protein from protease degradation. Protein lysates from sensitive CWR22r cells were incubated with or without the drug and subsequently digested with the indicated concentration of pronase. A. c52 was used (lane T-treated, M-marker) with indicated concentrations of pronase; ability of c52 to protect its target from protease cleavage was judged based on presence of protein band in the treated lane vs the untreated (UT) control.
Target identification through affinity chromatography and sensitivity to proteolysis methods was undertaken. […] These bands were excised from gel and sent for protein sequencing. (FIG. 24).

[4] = tested on: CWR22R; assay: cells; type: cell-based; settings: for pIC50: Homo sapiens, 22Rv1, CWR22R, read-out: IC50 for inhibition of growth
Description: FIG. 21. Toxicity of PLA1055 to CWR22R cells in vitro depending on time of incubation. PLA1055 was added to CWR22R in full range of concentrations for the periods of time shown on the right. After that drug containing media were changed for drug free and survival of cells was detected at 72 hours after start of treatment using Alamar Blue assay (Promega).
(§1) This example provides a table (below) of the compounds of the present disclosure and their activity towards four different cell lines (i.e., CWR22R, HeLa, PC3, and MDA-MB-231). The IC50 for inhibition of growth is divided into 4 categories: A<1 μM, B 1-5 μM, C 5-20 μM, D>20 μM.
(§2) All compounds were tested for toxicity using 4 cells lines, target cells—CWR22R and non-target cells, Hela, PC3 and MDA-MB-231 (FIGS. 1A-F).
(§3) LC50 data of in vitro 72 hours cytotoxicity assay are included in this table for comparison.
An in vitro experiment was run to detect the concentration of PLA1055 needed to kill all tumor cells in vitro (LC90) during different periods of time (30 minutes-72 hours, FIG. 21)).

[5] = Plasma concentration (PK) after intravenous and intraperitoneal injections; type: in vivo; settings: for plasma concentration time course: after IV and IP injections; for plasma concentration time course / bioavailability through IP injection: 50-100 mg/kg; for bioavailability through IP injection: plasma concentrations similar or even higher after IP than IV
[6] = Solubility for in vivo administration; type: physicochemical; settings: tested for PK using IP injection of the drug in suspension
[7] = Tissue drug concentrations (tumor, liver, plasma) in treated CWR22R tumor-bearing mice; type: in vivo
Description: (§4) We tested these compounds in an in vivo efficacy experiment using model of CRPC in SCID mice, CWR22R. Two compounds, PLA1079 and 1125, which were synthesized in the amount of 500 mg were tested in full scale experiment with either 5 IV daily injections or 10 IP daily injections. After 5 IP or IV injections intra-tumor concentration of the compounds were measured in few mice from this experiment.
Two other compounds, PLA1148 and 1098 (PK testing in FIGS. 8 and 9) were tested in a small scale efficacy experiment. Upon PK testing of the compound PLA1148 one mouse was injected twice with 10 min interval. However the concentration of the drug in plasma of this mouse was not twice, but >4 times higher than in mice injected once. […] It was decided to utilize this observation in an attempt to get higher plasma and tumor concentration of both compounds. Therefore in the pilot efficacy experiment in the same model of CWR22R cells mice were treated with 2 IP injections with 10 minute interval. Treatment with PLA1098 was carried out for two days. […] However this is so far the highest concentration found in tumor. […]
as §3

[8] = Toxicity / side effects in treated mice; type: in vivo
Description: (§5) Two other compounds, PLA1148 and 1098 (PK testing in FIGS. 8 and 9) were tested in a small scale efficacy experiment. Upon PK testing of the compound PLA1148 one mouse was injected twice with 10 min interval. However the concentration of the drug in plasma of this mouse was not twice, but >4 times higher than in mice injected once. […] It was decided to utilize this observation in an attempt to get higher plasma and tumor concentration of both compounds. Therefore in the pilot efficacy experiment in the same model of CWR22R cells mice were treated with 2 IP injections with 10 minute interval. Treatment with PLA1098 was carried out for two days. […] However this is so far the highest concentration found in tumor.
This compound may be also potentially promising.

[9] = tested on: CWR22R tumors; assay: In vivo efficacy, subcutaneous xenografts of CWR22R cells in SCID mice
Description: as §4, §5
Pilot efficacy experiments were run for compounds: PLA1163, PLA1148 using the same model of subcutaneous xenografts of CWR22R cells in SCID mice (FIGS. 18 and 19).

[10] = tested on: Mdm2; assay: Mdm2 accumulation, Western Blot; type: cell-based; settings: MCF7 cells with functionally inactive p53 (R175H, GSE56)
Description: Results of Western Blot analysis: CWR22r cells were treated with 1 uM c52 for indicated time intervals.
Also tested was the hypothesis that degradation of androgen receptor in prostate and breast cancer cells may be due to p53 induced accumulation of mdm2, which is also ubiquitin ligase for androgen receptor (FIG. 15). p53 was inactivated in several cell lines using different approaches what led to the blockade of mdm2 accumulation after c52 treatment. However androgen receptor was still degraded in c52 treated cells even in the absence of p53 activation and mdm2 accumulation (FIG. 16).

[11] = tested on: Hela; assay: Inhibition of growth / toxicity in non-target Hela cells; type: cell-based; settings: Homo sapiens, HeLa
Description: as §1, §2

[12] = tested on: MDA-MB-231; assay: Inhibition of growth / toxicity in non-target MDA-MB-231 cells; type: cell-based; settings: Homo sapiens
Description: as §1, §2

[13] = tested on: PC3; assay: Inhibition of growth / toxicity in non-target PC3 cells; type: cell-based; settings: Homo sapiens, PC-3
Description: as §1, §2

[14] = classification (Stable/Moderate/Unstable), lines whose second value is in %
[15] = in %, table title: Metabolic stability and solubility, % left after 30 minute incubation with mouse liver microsome
[16] = single IV administration of 50 mg/kg (FIG. 20)
[17] = one mouse, 24 hours after injections

## O=c1c2ccc3c(c2ccn1CCO)c1ccccc1n3CCCF [PLA1192]
[1]; pH 7.4
  Aqueous Solubility (pH 7.4): 15 μM
  Aqueous Solubility Classification: Moderate
[2]; [14]
  Aqueous Solubility Classification: Moderate
[2]; [15]
  Metabolic stability, % left after 30 min with mouse liver microsomes: 27%

## O=C1CCc2c1ccc1c2c2cc(Br)ccc2n1CCCF [PLA1199]
[1]; pH 7.4
  Aqueous Solubility (pH 7.4): 2.3 μM
  Aqueous Solubility Classification: Low
[2]; [14]
  Metabolic stability, % left after 30 min with mouse liver microsomes: Moderate
[2]; [15]
  Metabolic stability, % left after 30 min with mouse liver microsomes: 42%

## O=c1c2ccc3c(c2ccn1CCN1CCCC1)c1ccccc1n3CCCF [PLA1193]
[1]; pH 7.4
  Aqueous Solubility (pH 7.4): 140 μM
  Aqueous Solubility Classification: High
[2]; [14]
  Metabolic stability, % left after 30 min with mouse liver microsomes: Unstable
[2]; [15]
  Metabolic stability, % left after 30 min with mouse liver microsomes: 3%

## CCCn1c2ccccc2c2cc(S(C)(=O)=O)ccc21 [PLA1118]
[3]
  protection of target protein from pronase degradation: faintly

## CC(=O)c1ccc2c(c1)c1ccccc1n2CCCF [PLA1055]
[4]
  CC50: 40 nM
[4]; CWR22R, incubation 4-8 hours, survival at 72 hours, Alamar Blue assay
  LC90: 2500 nM
[5]; [16]
  plasma concentration at 8 hours: below 1 uM
  time up to which compound was detected in plasma: up to 24 hours

## O=c1[nH]ccc2c1ccc1c2c2ccccc2n1CCCF [PLA1121]
[6]
  solubility: poorly soluble

## CC(=O)c1ccc2c(c1)c1c(C(N)=O)cccc1n2CCCF [PLA1191]
[1]; pH 7.4
  Aqueous Solubility (pH 7.4): 130 μM
  Aqueous Solubility Classification: High
[2]; [14]
  Metabolic stability, % left after 30 min with mouse liver microsomes: Moderate
[2]; [15]
  Metabolic stability, % left after 30 min with mouse liver microsomes: 30%

## O=C1NCCOc2c1ccc1c2c2ccccc2n1CCCF [PLA1163]
[6]
  solubility: poorly soluble
[7]; 40 mg/kg, IP
  Liver: 307 nM
  Tumor concentration: 4 to 10 nM
[4]
  CC50: 200 nM

## O=C1CCc2c1ccc1c2c2c(F)cccc2n1CCCF [PLA1197]
[1]; pH 7.4
  Aqueous Solubility (pH 7.4): 4.0 μM
  Aqueous Solubility Classification: Low
[2]
  metabolic stability, % left: 77%
[2]; [14]
  Metabolic stability, % left after 30 min with mouse liver microsomes: Stable
[2]; [15]
  Metabolic stability, % left after 30 min with mouse liver microsomes: 73%

## O=C1NCCc2c1ccc1c2c2ncccc2n1CCCF [PLA1148]
[7]; 50 mg/kg, IP
  Liver: 50 nM
  Tumor concentration: 0 to 90 nM
[7]; 48 hours after treatment
  Tumor concentration: 84 nM
  liver concentration: 49 nM
[7]; 48 hours after treatment, compared with 24 hours (8.5 nM)
  plasma concentration: The same plasma concentration
[7]; [17]
  drug in liver: no drug detected
  drug in tumor: no drug detected
  plasma concentration: 8.5 nM
[8]; 2 IP injections with 10 minute interval, one day, symptoms suggested acute liver failure
  acute toxicity: acute toxicity developed quickly after injection
[8]; after one day of injections
  mortality: 2 mice died next day and 3 other during next 5 days
[9]; CWR22R, two mice
  tumors of mice that died on the 5th day: almost undetectable tumors
[5]
  plasma concentration time course: fast reduction of concentration during the first hour
  bioavailability through IP injection: very high
[5]; two injections with 10 min interval
  plasma concentration of mouse injected twice versus mice injected once: > 4 times

## O=C1COc2c(ccc3c2c2ncccc2n3CCCF)N1 [PLA1183]
[1]
  Aqueous Solubility Classification: Moderate
[1]; pH 7.4
  Aqueous Solubility Classification: Low

## NC(=O)c1cccc2c1c1c3cc[nH]c(=O)c3ccc1n2CCCF [PLA1196]
[1]; pH 7.4
  Aqueous Solubility (pH 7.4): 26 μM
  Aqueous Solubility Classification: Moderate
[2]; [14]
  Aqueous Solubility Classification: Moderate
[2]; [15]
  Metabolic stability, % left after 30 min with mouse liver microsomes: 65%

## CC(=O)c1ccc2c(c1)c1c3c(ccc1n2CCCF)C(=O)CC3 [PLA1198]
[1]; pH 7.4
  Aqueous Solubility (pH 7.4): 2.5 μM
  Aqueous Solubility Classification: Low
[2]; [14]
  Metabolic stability, % left after 30 min with mouse liver microsomes: Moderate
[2]; [15]
  Metabolic stability, % left after 30 min with mouse liver microsomes: 46%

## CC(=O)c1ccc2c(c1)c1cc(C(C)=O)ccc1n2CCNC(C)C [CBL 137, reference compound]
[10]
  Mdm2 level: Mdm2 is no longer overexpressed

## CCCn1c2ccccc2c2c3cc[nH]c(=O)c3ccc21 [PLA1099]
[6]
  solubility: poorly soluble

## O=c1[nH]ccc2c1ccc1c2c2ncccc2n1CCCF [PLA1181]
[1]
  Aqueous Solubility Classification: Low
[1]; pH 7.4
  Aqueous Solubility Classification: Low

## FCCCn1c2ccccc2c2cc(-c3nnco3)ccc21 [PLA1125]
[7]; 100 mg/kg, IP/IV
  Tumor concentration: 7 to 10 nM
[7]; mouse, in vivo
  intra-tumor concentration relative to LC50% in vitro: significantly below LC50%
[4]
  CC50: 100 nM
[9]; CWR22R in SCID mice, 5 IV daily injections or 10 IP daily injections
  in vivo efficacy: absence of in vivo efficacy
[5]
  plasma concentration time course: fast reduction of concentration during the first hour
  bioavailability through IP injection: very high

## CN1Cc2c(ccc3c2c2ccccc2n3CCC(F)F)C1=O [PLA1194]
[1]; pH 7.4
  Aqueous Solubility (pH 7.4): 18 μM
  Aqueous Solubility Classification: Moderate
[2]; [14]
  Aqueous Solubility Classification: Moderate
[2]; [15]
  Metabolic stability, % left after 30 min with mouse liver microsomes: 28%

## N#Cc1cccc2c1c1c3cc[nH]c(=O)c3ccc1n2CCCF [PLA1195]
[1]; pH 7.4
  Aqueous Solubility (pH 7.4): 2.7 μM
  Aqueous Solubility Classification: Low
[2]; [14]
  Metabolic stability, % left after 30 min with mouse liver microsomes: Moderate
[2]; [15]
  Metabolic stability, % left after 30 min with mouse liver microsomes: 63%

## N#Cc1ccc2c(c1)c1c(C(N)=O)cccc1n2CCCF [Compound 19-2]
[11]
  pIC50: < 4.70
[12]
  pIC50: < 4.70
[4]
  pIC50: > 6.00
[13]
  pIC50: < 4.70

## O=c1[nH]c2ccc3c(c4ccccc4n3CCCF)c2o1 [PLA1190]
[1]; pH 7.4
  Aqueous Solubility (pH 7.4): 3.5 μM
  Aqueous Solubility Classification: Low
[2]
  metabolic stability, % left: 70%
[2]; [14]
  Metabolic stability, % left after 30 min with mouse liver microsomes: Stable
[2]; [15]
  Metabolic stability, % left after 30 min with mouse liver microsomes: 77%

## CC(=O)c1cc2c3ccccc3n(CCCF)c2cn1 [Compound 17-1, 1-[9-(3-Fluoropropyl)-9H-beta-carbolin-3-yl]-ethanone]
[11]
  pIC50: < 4.70
[12]
  pIC50: < 4.70
[4]
  pIC50: > 6.00
[13]
  pIC50: < 4.70
